EC50 data for 17 compounds are collected here from patent publication US20250136606A1, “MODULATORS OF TRPML, THEIR COMPOSITIONS AND METHODS OF USE” (Caraway Therapeutics, Inc., priority 2021, published 2025).

Format in all cases: cell-based
Details in all cases: fluorescent calcium assay

For assay [1], the target named is TRPML1 (Homo sapiens, UniProt Q9GZU1). Description: Fluorescent TRPML1 assay (Fluo4-AM calcium fluorescence in doxycycline-induced HEK-293 Trex cells). In short, it runs like this:
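HEK-293 Trex cells stably carrying human TRPML1 (surface-trafficking mutant) were induced overnight with 0.5 ug/mL doxycycline, loaded with 1 micromolar Fluo4-AM, and suspended in Ringer's with 10 mM calcium. Compounds at 20 micromolar to 6 nanomolar final, half-log steps, triplicate; fluorescence 480/540 nm gave percent activity versus controls and EC50 by non-linear regression.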

Assay [2] deals with T1, TRPML2 (Homo sapiens, UniProt Q8IZK6).
T1 construct: expressed in transfected cells
T1 sequence (Q8IZK6 1-566): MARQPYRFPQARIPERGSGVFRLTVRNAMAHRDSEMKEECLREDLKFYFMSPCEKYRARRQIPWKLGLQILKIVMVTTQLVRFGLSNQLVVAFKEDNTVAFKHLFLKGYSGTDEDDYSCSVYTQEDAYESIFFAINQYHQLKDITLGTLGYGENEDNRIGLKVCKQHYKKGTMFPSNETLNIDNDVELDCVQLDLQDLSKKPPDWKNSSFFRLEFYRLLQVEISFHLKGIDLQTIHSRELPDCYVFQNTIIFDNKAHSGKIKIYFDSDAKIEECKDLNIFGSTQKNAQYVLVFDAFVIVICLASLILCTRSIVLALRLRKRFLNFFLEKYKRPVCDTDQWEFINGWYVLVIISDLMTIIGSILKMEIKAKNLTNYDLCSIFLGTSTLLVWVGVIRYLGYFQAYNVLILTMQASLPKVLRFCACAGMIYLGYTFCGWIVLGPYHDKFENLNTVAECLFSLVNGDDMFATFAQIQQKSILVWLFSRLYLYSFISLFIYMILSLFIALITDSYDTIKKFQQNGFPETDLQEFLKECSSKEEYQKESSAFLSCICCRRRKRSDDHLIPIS
Description: Fluorescent TRPML2 assay (performed as for TRPML1, substituting the TRPML2 subtype). In short, it runs like this: (§1)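 HEK-293 Trex, dox-induced (0.5 ug/mL), mutated for surface expression. Fluo4-AM 1 micromolar load ~60 min, dark; buffer modified Ringer's, 10 mM Ca. Cpds 20 micromolar–6 nanomolar final, half-log, n=3. Read ex 480/em 540; % activity vs controls; EC50 nonlinear fit.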

For assay [3], the target named is T2, TRPML3 (Homo sapiens, UniProt Q8TDD5).
T2 construct: expressed in transfected cells
T2 sequence (Q8TDD5 1-553): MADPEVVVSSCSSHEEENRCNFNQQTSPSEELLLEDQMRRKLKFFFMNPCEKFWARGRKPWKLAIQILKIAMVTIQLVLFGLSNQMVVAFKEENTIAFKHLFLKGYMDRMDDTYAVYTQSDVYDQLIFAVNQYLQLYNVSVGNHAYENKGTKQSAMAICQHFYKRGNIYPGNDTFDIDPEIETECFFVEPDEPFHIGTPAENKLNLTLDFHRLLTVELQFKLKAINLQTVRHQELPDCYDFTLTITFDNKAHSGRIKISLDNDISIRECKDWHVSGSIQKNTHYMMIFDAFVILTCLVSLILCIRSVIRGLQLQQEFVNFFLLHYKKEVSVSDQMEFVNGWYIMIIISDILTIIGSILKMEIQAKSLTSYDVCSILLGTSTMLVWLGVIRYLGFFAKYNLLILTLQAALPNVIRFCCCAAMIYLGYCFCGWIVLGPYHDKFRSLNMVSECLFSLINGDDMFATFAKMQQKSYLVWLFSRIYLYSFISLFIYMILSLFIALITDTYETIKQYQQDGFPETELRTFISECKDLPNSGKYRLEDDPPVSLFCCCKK
Description: Fluorescent TRPML3 assay (performed as for TRPML1, substituting the TRPML3 subtype). Put shortly:
as §1

TRPML1, sequence (Q9GZU1 whole entry L15A/L16A/L577A/L578A, form open): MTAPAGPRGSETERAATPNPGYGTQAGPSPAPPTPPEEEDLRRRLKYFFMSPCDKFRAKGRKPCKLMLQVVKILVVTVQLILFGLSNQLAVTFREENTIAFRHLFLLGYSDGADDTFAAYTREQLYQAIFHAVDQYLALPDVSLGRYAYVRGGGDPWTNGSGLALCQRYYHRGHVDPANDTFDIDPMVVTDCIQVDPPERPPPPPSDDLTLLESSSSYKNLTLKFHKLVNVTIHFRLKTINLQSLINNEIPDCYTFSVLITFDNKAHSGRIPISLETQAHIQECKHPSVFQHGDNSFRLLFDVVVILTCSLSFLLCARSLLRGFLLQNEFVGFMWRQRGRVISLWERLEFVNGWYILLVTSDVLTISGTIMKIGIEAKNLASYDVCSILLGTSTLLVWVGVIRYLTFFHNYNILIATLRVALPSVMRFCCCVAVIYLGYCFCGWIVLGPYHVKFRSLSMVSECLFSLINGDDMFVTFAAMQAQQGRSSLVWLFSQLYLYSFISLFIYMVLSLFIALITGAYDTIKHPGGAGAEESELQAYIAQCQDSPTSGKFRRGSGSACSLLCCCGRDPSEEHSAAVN

`C[C@H]1CN(C(=O)OC(C)(C)C)CCN1c1ncnc2c1c(-c1ccccn1)cn2-c1cc(F)cc(F)c1` [Compound 235, tert-butyl-(S)-4-(7-(3,5-difluorophenyl)-5-(pyridin-2-yl)-7H-pyrrolo[2,3-d]pyrimidin-4-yl)-3-methylpiperazine-1-carboxylate]: the half-maximal effective concentration (EC50) in assay [1], in assay [2] and in assay [3] was 100 to 500 nM throughout.

Take `C[C@@H]1CN(c2ncnc3c2c(C2CC2)cn3-c2cc(F)cc(Cl)c2)[C@@H](C)CN1C(=O)OC(C)(C)C` [Compound 236, tert-butyl (2R,5S)-4-(7-(3-chloro-5-fluorophenyl)-5-cyclopropyl-7H-pyrrolo[2,3-d]pyrimidin-4-yl)-2,5-dimethylpiperazine-1-carboxylate]: the figures for the EC50 in assay [1], in assay [2] and in assay [3] were below 100 nM, 100 to 500 nM and below 100 nM, respectively.

Turning to `C[C@H]1CN(C(=O)OC(C)(C)C)CCN1c1ncnc2c1c(-c1cnccn1)cn2-c1cc(F)cc(F)c1` [Compound 237, tert-butyl-(S)-4-(7-(3,5-difluorophenyl)-5-(pyrazin-2-yl)-7H-pyrrolo[2,3-d]pyrimidin-4-yl)-3-methylpiperazine-1-carboxylate], the 50% effective concentration (EC50) (in general, the concentration needed to bring the measured effect to its halfway point) in assay [1] fell in the range of 500 to 2000 nM; in assay [2] it was 500 to 2000 nM; in assay [3], 100 to 500 nM.

With `C[C@@H]1CN(c2ncnc3c2c(-c2ccncc2)cn3-c2cc(F)cc(Cl)c2)CCN1C(=O)OC(C)(C)C` [Compound 238, tert-butyl (R)-4-(7-(3-chloro-5-fluorophenyl)-5-(pyridin-4-yl)-7H-pyrrolo[2,3-d]pyrimidin-4-yl)-2-methylpiperazine-1-carboxylate], the concentration giving a half-maximal response (EC50) in assay [1] was below 100 nM; in assay [2] it was 500 to 2000 nM; in assay [3], 100 to 500 nM.

On to `C[C@@H]1CN(c2ncnc3c2c(C2CC2)nn3-c2cc(F)cc(F)c2)CCN1C(=O)OC(C)(C)C` [Compound 239, tert-butyl (R)-4-(3-cyclopropyl-1-(3,5-difluorophenyl)-1H-pyrazolo[3,4-d]pyrimidin-4-yl)-2-methylpiperazine-1-carboxylate], for which the EC50 in assay [1] is below 100 nM; in assay [2], 500 to 2000 nM; in assay [3], below 100 nM.

For `C[C@H]1CN(c2ncnc3c2c(C2CC2)nn3-c2cc(F)cc(F)c2)CCN1C(=O)OC(C)(C)C` [Compound 240, tert-Butyl (S)-4-(3-cyclopropyl-1-(3,5-difluorophenyl)-1H-pyrazolo[3,4-d]pyrimidin-4-yl)-2-methylpiperazine-1-carboxylate], the concentration for a half-maximal effect (EC50) lay in the range of 100 to 500 nM in assay [1], 500 to 2000 nM in assay [2] and 100 to 500 nM in assay [3].

Regarding `C[C@H]1CN(C(=O)OC(C)(C)C)CCN1c1ncnc2c1c(-c1ccncc1)cn2-c1cc(F)cc(F)c1` [Compound 241, tert-butyl-(S)-4-(7-(3,5-difluorophenyl)-5-(pyridin-4-yl)-7H-pyrrolo[2,3-d]pyrimidin-4-yl)-3-methylpiperazine-1-carboxylate], the EC50 in assay [1] was 100 to 500 nM; in assay [2], 500 to 2000 nM; in assay [3] it was 100 to 500 nM.

Turning to `Cc1nccnc1-c1cn(-c2cc(F)cc(F)c2)c2ncnc(N3CCN(C(=O)OC(C)(C)C)[C@H](C)C3)c12` [Compound 242, tert-butyl (R)-4-(7-(3,5-difluorophenyl)-5-(3-methylpyrazin-2-yl)-7H-pyrrolo[2,3-d]pyrimidin-4-yl)-2-methylpiperazine-1-carboxylate], the EC50 in assay [1], in assay [2] and in assay [3] was 100 to 500 nM throughout.

In the case of `Cc1nccnc1-c1cn(-c2cc(F)cc(F)c2)c2ncnc(N3CCN(C(=O)OC(C)(C)C(F)(F)F)[C@H](C)C3)c12` [Compound 243, 1,1,1-trifluoro-2-methylpropan-2-yl (R)-4-(7-(3,5-difluorophenyl)-5-(3-methylpyrazin-2-yl)-7H-pyrrolo[2,3-d]pyrimidin-4-yl)-2-methylpiperazine-1-carboxylate], the half-maximal effective concentration (EC50) was in the range of 100 to 500 nM in assay [1], 500 to 2000 nM in assay [2] and 100 to 500 nM in assay [3].

For the compound `C[C@@H]1CN(c2ncnc3c2c(N2CCCC2)cn3-c2cc(F)cc(F)c2)CCN1C(=O)OC(C)(C)C` [Compound 245, tert-butyl (R)-4-(7-(3,5-difluorophenyl)-5-(pyrrolidin-1-yl)-7H-pyrrolo[2,3-d]pyrimidin-4-yl)-2-methylpiperazine-1-carboxylate], the EC50 is 100 to 500 nM in assay [1], 500 to 2000 nM in assay [2] and 100 to 500 nM in assay [3].

On to `Cc1nccnc1-c1cn(-c2cc(F)cc(F)c2)c2ncnc(N3CCN(C(=O)OC(C)(C)C)C[C@@H]3C)c12` [Compound 246, tert-butyl (S)-4-(7-(3,5-difluorophenyl)-5-(3-methylpyrazin-2-yl)-7H-pyrrolo[2,3-d]pyrimidin-4-yl)-3-methylpiperazine-1-carboxylate], for which the values for the EC50 in assay [1], in assay [2] and in assay [3] were 500 to 2000 nM, 500 to 2000 nM and 100 to 500 nM, respectively.

In the case of `Cc1nccnc1-c1cn(-c2cc(F)cc(F)c2)c2ncnc(N3CCN(C(=O)OC(C)(C)C(F)(F)F)C[C@@H]3C)c12` [Compound 247, 1,1,1-trifluoro-2-methylpropan-2-yl (S)-4-(7-(3,5-difluorophenyl)-5-(3-methylpyrazin-2-yl)-7H-pyrrolo[2,3-d]pyrimidin-4-yl)-3-methylpiperazine-1-carboxylate], the concentration giving a half-maximal response (EC50) in assay [1] fell in the range of 500 to 2000 nM; in assay [2], 500 to 2000 nM; in assay [3] it was 100 to 500 nM.

As for `Cc1nccnc1-c1cn(-c2cc(F)cc(F)c2)c2ncnc(N3CCN(C(=O)OC(C)(C)CF)C[C@@H]3C)c12` [Compound 248, 1-fluoro-2-methylpropan-2-yl (S)-4-(7-(3,5-difluorophenyl)-5-(3-methylpyrazin-2-yl)-7H-pyrrolo[2,3-d]pyrimidin-4-yl)-3-methylpiperazine-1-carboxylate], the EC50 in assay [1] is 500 to 2000 nM; in assay [2] it was above 2000 nM; in assay [3], 500 to 2000 nM.

Turning to `Cc1nccnc1-c1cn(-c2cc(F)cc(F)c2)c2ncnc(N3CCN(C(=O)OC(C)C)C[C@@H]3C)c12` [Compound 249, Isopropyl (S)-4-(7-(3,5-difluorophenyl)-5-(3-methylpyrazin-2-yl)-7H-pyrrolo[2,3-d]pyrimidin-4-yl)-3-methylpiperazine-1-carboxylate], the EC50 in assay [1] was above 2000 nM; in assay [2], above 2000 nM; in assay [3], 500 to 2000 nM.

As to `Cc1nccnc1-c1cn(-c2cc(F)cc(F)c2)c2ncnc(N3CCN(C(=O)OC(C)(C)CF)[C@H](C)C3)c12` [Compound 250, 1-fluoro-2-methylpropan-2-yl (R)-4-(7-(3,5-difluorophenyl)-5-(3-methylpyrazin-2-yl)-7H-pyrrolo[2,3-d]pyrimidin-4-yl)-2-methylpiperazine-1-carboxylate], the EC50 is 500 to 2000 nM in assay [1], above 2000 nM in assay [2] and 100 to 500 nM in assay [3].

With `Cc1nccnc1-c1cn(-c2cc(F)cc(F)c2)c2ncnc(N3CCN(C(=O)OC(C)C)[C@H](C)C3)c12` [Compound 251, isopropyl (R)-4-(7-(3,5-difluorophenyl)-5-(3-methylpyrazin-2-yl)-7H-pyrrolo[2,3-d]pyrimidin-4-yl)-2-methylpiperazine-1-carboxylate], the values for the half-maximal effective concentration (EC50) in assay [1], in assay [2] and in assay [3] were above 2000 nM, above 2000 nM and 500 to 2000 nM, respectively.

Turning to `CC(C)OC(=O)N1C[C@H](C)N(c2ncnc3c2c(-c2ccccc2F)cn3-c2cnn(C)c2)C[C@H]1C` [Compound 252, isopropyl (2R,5S)-4-(5-(2-fluorophenyl)-7-(1-methyl-1H-pyrazol-4-yl)-7H-pyrrolo[2,3-d]pyrimidin-4-yl)-2,5-dimethylpiperazine-1-carboxylate], the results for the 50% effective concentration (EC50) in assay [1], in assay [2] and in assay [3] were 100 to 500 nM, above 2000 nM and 100 to 500 nM, respectively.
